Experiments:
[1] = system: glioma cell lines T98G, U87MG and GL261; assay: Clonogenic cell survival assay after irradiation (radiosensitivity of glioma cell lines); assay type: cell-based, human (T98G, U87MG); mouse (GL261); conditions: pure phytocannabinoid used alone, increasing concentrations, 24 h prior to irradiation (0, 1, 2 and 5 Gy, Cs137); FIG. 2 / FIG. 3
Experimental: The human glioma cell lines T98G and U87MG were obtained from ATCC, and were lines derived from patients with a glioblastoma multiforme tumour and a glioblastoma astrocytoma respectively.
The mouse glioma cell line GL261, which is syngeneic to the C57BL/6 mouse was acquired from the NCI.
Cells were exposed to increasing doses of irradiation and then clonogenic cell survival assays were performed. The ability of the cells to survive an irradiation insult and go on and divide indefinitely forming a colony was assessed in this manner and used as our read-out of radiosensitivity.
(§1) Cells were initially seeded into flasks and left to adhere overnight. […] Cells were then harvested, counted and seeded again at increasing densities in 6-well plates, adjusting the density appropriately for the radiation dose, and then incubated for approximately 14 days. […] Colonies consisting of >50 cells were counted and calculated as a proportion of the number of cells initially seeded (surviving fraction). […]
as §1, with “surviving fraction was calculated.” for “calculated as a proportion of the number of cells initially seeded (surviving fraction).”

[2] = system: U87 and U373 human glioma cell lines; conditions: cited from earlier work
[3] = system: U87 human glioma cells subcutaneously implanted to nude mice; conditions: cited from earlier work

Structure (SMILES): CCCCCc1cc(O)c2c(c1)OC(C)(C)[C@@H]1CCC(C)=C[C@@H]21 [THC, Tetrahydrocannabinol]
- effect on radiosensitivity (surviving fraction) [1]: did not appear to alter the radiosensitivity

Structure (SMILES): C=C(C)[C@@H]1CCC(C)=C[C@H]1c1c(O)cc(CCCCC)cc1O [CBD, Cannabidiol]
- effect on radiosensitivity (surviving fraction) [1]: did not appear to alter the radiosensitivity
- anti-proliferative effects in-vitro [2]: anti-proliferative effects
- anti-proliferative effects in-vivo [3]: anti-proliferative effects

Reference: patent publication US20160136127A1, “USE OF TETRAHYDROCANNABINOL AND/OR CANNABIDIOL FOR INCREASING RADIOSENSITVITY IN THE TREATMENT OF A BRAIN TUMOUR” (GW PHARMA LIMITED, priority 2013, published 2016)
